pEC50: −log10 of the molar value. Where two headings read alike, the source gives them in different places. Values belong to the molecule of their own block, whether it stands above or below them.
Assays:
OCI-LY10 cells = experiment: CellTiter-Glo cell viability assay, four days (Example 1A); type: cell-based; details: for pEC50: Homo sapiens; for growth of cell line: OCI-LY10, single agent
Method: (§1) In vitro anti-proliferative activity of agents was assessed using CellTiter-Glo™ Assay (Promega), which quantifies cellular ATP level. Test compounds were dissolved in DMSO to prepare 10 mM stock solutions. […] For drug combination studies, a two or three fold horizontal serial dilution pattern was used for Compound B and combined with Idelalisib using a two, three, or four fold vertical serial dilution pattern. […] The final DMSO concentration in the test media was 0.2%. Each combination used replicates of four plates to generate sufficient data for evaluation of synergy scores. […] The assay growth medium for all lines was RPMI supplemented with 20% FBS and […] penicillin-streptomycin. Seeding density was optimized for growth rate over 96 hours for each cell line and was between 10,000-30,000 cells per well of 96 well plates. After four days incubation with agents at 37° C./5% CO2, the CellTiter-Glo™ assay was performed following the manufacturer's protocol. Relative luminescence units were quantified using a Biotek Synergy luminometer.
(§2) Data from a plate was excluded if either Z′<0.5 or the growth of the cell lines was less than one doubling in the four day assay period. Z′ was calculated using the formula: Z′=[1−((3(σstau+σDMSO))/(|μDMSO−μstau|)] where σstau and σDMSO are the standard deviation of the 100% inhibited staurosporine and 0% inhibited DMSO control wells, respectively. μDMSO and μstau are the mean of the […] control wells, respectively. The raw Cell Titer Glo signal was normalized according to the following formula: [(raw value)−(100% inhibited staurosporine control)]/[(DMSO control value)−(100% inhibited staurosporine control)].
(§3) EC50 was determined using GraphPad Prism or Dose Response software by fitting the data to a four parameters variable slope model. […] For combination studies, the EC50 at each test article concentration was determined from graphs of the EC50 of one compound at a fixed dose of second compound. The EC50 shift was calculated by taking the ratio of the EC50 of the single agent by the EC50 at the maximum dose of the second agent.
(§4) Synergy was analyzed using the MacSynergy II program, which calculates a theoretical additive value for the drug combination that is based on the values generated by each drug alone using the Bliss Independence mathematical model. The Bliss independence model assumes that each drug acts independently. The theoretical additive effect for each compound is calculated and then subtracted from the actual effect. Synergy is defined by greater than expected effects while antagonism is defined by less than expected effects. In this example, a synergy volume greater than 50 was considered significant. The EC50 values determined in drug combination studies represent a single experiment run in quadruplicate and therefore may differ slightly from the single agent EC50 values.

Ri-1 cells = experiment: as above; type: cell-based; details: for pEC50: Ri-1, Ri-1; for growth of cell line: single agent
Method: as §1, §2, §3, §4

TMD8 tumor xenograft = TMD8 tumor xenograft model, tumor volume; type: in vivo, mice; design: tumor growth: dose or concentration left out as unconfirmed; details: oral gavage
Method: A TMD8 tumor xenograft model was generated by introducing cultured TMD8 cells into irradiated mice. All animal experiments were performed in accordance with the Institutional Animal Care and Use Committee (IACUC) protocol. Male CB17-SCID mice were treated with 1.44 Gy whole body irradiation using a ^60Co radiation source, and seventy-four hours later, 1×10^7 TMD8 cells were inoculated subcutaneously into the right flank. When tumors reached a mean volume of 200 mm^3, mice were randomly assigned to groups (n=13). […] All test compounds were formulated in 5% (v/v) N-Methyl-2-pyrrolidone (NMP)/55% (v/v) Polyethylene Glycol 300 (PEG) 300/40% (v/v) Water/1% (w/v) Vitamin E D-α-Tocopherol Polyethylene Glycol 1000 Succinate (TPGS). Tumor volume was calculated using the following formula: (length×width^2)/2, where length is the longest diameter across the tumor and width is the corresponding perpendicular diameter. Tumor growth inhibition rate was calculated using the following formula: 1−(tumor sizeend of compound treatment−tumor sizebeginning of compound treatment/tumor sizeend of vehicle treatment−tumor sizebeginning of vehicle treatment)×100.
The Analysis of Variance model for repeated measure was used to determine the treatment effect on tumor growth. The model fitted on tumor volume included factors of treatment, time, and their interaction. […]

c-MYC = experiment: Immunohistochemistry of TMD8 xenograft tumor samples; type: in vivo, mice; details: PI3Kδ inhibitor 5 mg/kg, Compound B 10 mg/kg; data not shown
Method: (§5) Paraffin sections of the tumor samples were prepared for immunohistochemistry. Slides were prepared with EZ Prep (Ventana Medical Systems) CC1 (Ventana Medical Systems) and rinsed with Reaction Buffer (Ventana Medical Systems). Slides were incubated with ChromoMap Inhibitor (Venatana Medical Systems) and rinsed a Reaction Buffer rinse before incubating with anti-pS6 (S235/236) rabbit monoclonal antibody (Cell Signaling Technology) at 0.02 ug/mL or anti-c-MYC rabbit monoclonal antibody (Abcam Inc.) at 0.3 ug/mL. After 1 hour at room temperature, the slides were incubated sequentially with Anti-Rabbit HQ (Ventana Medical Systems), Anti-HQ HRP (Ventana Medical Systems) hydrogen peroxide CM (Ventana Medical Systems), Copper CM (Ventana Medical Systems), and Hematoxylin II. Slides were imaged using the Leica AT2 digital slide scanner (Leica Microsystems Inc.) and documented in Digital Image Hub (DIH-SlidePath).

p-S6 S235/236 = experiment: as above; type: in vivo, mice; details: PI3Kδ inhibitor 5 mg/kg, Compound B 10 mg/kg; data not shown
Method: as §5

[1] = system: TMD-8 cells with the BTK (C481F) mutation; experiment: 96-hour Cell Titer Glo viability assay, Ibrutinib-resistant TMD-8; design: Emax: dose or concentration left out as unconfirmed; details: for sensitivity in cell viability assay: TMD8^BTK-C481F, 96 h
[2] = OCI-Ly10, OCI-LY10, bound stated for three ABC-DLBCL cell lines, read-out: EC50, growth inhibition, single agent
[3] = bound stated for three ABC-DLBCL cell lines, read-out: EC50, growth inhibition, single agent

pEC50 (OCI-LY10 cells; [2]): > 7.59 | pEC50 (OCI-LY10 cells; OCI-Ly10, OCI-LY-10, Idelalisib 0 nM, read-out: EC50 of Compound B in Combination with Idelalisib): 8.22 | pEC50 (OCI-LY10 cells; OCI-Ly10, OCI-LY-10, Idelalisib 156 nM, read-out: EC50 of Compound B in Combination with Idelalisib): 8.52 | pEC50 (OCI-LY10 cells; OCI-Ly10, OCI-LY-10, Idelalisib 625 nM, read-out: EC50 of Compound B in Combination with Idelalisib): 8.52 | Compound B EC50 shift (fold) (OCI-LY10 cells; OCI-LY-10, single agent EC50 / EC50 at maximum dose of Idelalisib): 2 fold
Compound: CC#CC(=O)N1CC[C@@H](n2c(=O)n(-c3ccc(Oc4ccccc4)cc3)c3c(N)ncnc32)C1 [Compound B, 6-amino-9-[(3R)-1-(2-butynoyl)-3-pyrrolidinyl]-7-(4-phenoxyphenyl)-7,9-dihydro-8H-purin-8-one]
growth of cell line (OCI-LY10 cells): inhibited the growth | pEC50 (Ri-1 cells; Idelalisib 0 nM, read-out: EC50 of Compound B in Combination with Idelalisib): 8.30 | pEC50 (Ri-1 cells; Idelalisib 156 nM, read-out: EC50 of Compound B in Combination with Idelalisib): 8.70 | pEC50 (Ri-1 cells; Idelalisib 625 nM, read-out: EC50 of Compound B in Combination with Idelalisib): 8.70 | pEC50 (Ri-1 cells; [3]): > 7.59 | growth of cell line (Ri-1 cells; Ri-1): inhibited the growth | Compound B EC50 shift (fold) (Ri-1 cells; Ri-1, single agent EC50 / EC50 at maximum dose of Idelalisib): 2.5 fold | tumor growth inhibition (TMD8 tumor xenograft; 10 mg/kg BID, P<0.05): 75% | tumor growth (TMD8 tumor xenograft): did not inhibit tumor growth | c-MYC signal, IHC (c-MYC): did not reduce | p-S6 signal, IHC (p-S6 S235/236): did not reduce | sensitivity in cell viability assay [1]: resistant

Compound: CCC(Nc1ncnc2[nH]cnc12)c1nc2cccc(F)c2c(=O)n1-c1ccccc1 (stereo not shown) [Idelalisib, 2-(1-((9H-Purin-6-yl)amino)propyl)-5-fluoro-3-phenylquinazolin-4(3H)-one]
pEC50 (OCI-LY10 cells; OCI-Ly10, OCI-LY10, addition of Compound B at 6 nM, read-out: EC50 of idelalisib): 7.62 | pEC50 (OCI-LY10 cells; OCI-Ly10, OCI-LY10, addition of Compound B at 12 nM, read-out: EC50 of idelalisib): 7.72 | pEC50 (OCI-LY10 cells; OCI-Ly10, OCI-LY10, addition of Compound B at 25 nM, read-out: EC50 of idelalisib): 7.89 | pEC50 (OCI-LY10 cells; [2]): > 6.68 | pEC50 (OCI-LY10 cells; OCI-Ly10, OCI-LY10, without Compound B, read-out: EC50 of idelalisib): 6.91 | pEC50 (OCI-LY10 cells; OCI-Ly10, OCI-LY-10, Compound B 0 nM, read-out: EC50 of Idelalisib when Combined with Compound B): 6.36 | pEC50 (OCI-LY10 cells; OCI-Ly10, OCI-LY-10, Compound B 5 nM, read-out: EC50 of Idelalisib when Combined with Compound B): 7.42 | pEC50 (OCI-LY10 cells; OCI-Ly10, OCI-LY-10, Compound B 15 nM, read-out: EC50 of Idelalisib when Combined with Compound B): 7.66 | pEC50 (OCI-LY10 cells; OCI-Ly10, OCI-LY-10, Compound B 45 nM, read-out: EC50 of Idelalisib when Combined with Compound B): 8.30 | growth of cell line (OCI-LY10 cells): inhibited the growth | Idelalisib EC50 shift (fold) (OCI-LY10 cells; OCI-LY-10, single agent EC50 / EC50 at maximum dose of Compound B): 88 fold | pEC50 (Ri-1 cells; Compound B 0 nM, read-out: EC50 of Idelalisib when Combined with Compound B): 6.35 | pEC50 (Ri-1 cells; Compound B 5 nM, read-out: EC50 of Idelalisib when Combined with Compound B): 6.43 | pEC50 (Ri-1 cells; Compound B 15 nM, read-out: EC50 of Idelalisib when Combined with Compound B): 6.43 | pEC50 (Ri-1 cells; Compound B 45 nM, read-out: EC50 of Idelalisib when Combined with Compound B): 6.43 | pEC50 (Ri-1 cells; [3]): > 6.68 | growth of cell line (Ri-1 cells; Ri-1): inhibited the growth | Idelalisib EC50 shift (fold) (Ri-1 cells; Ri-1, single agent EC50 / EC50 at maximum dose of Compound B): 1.2 fold | Emax ([1]; Homo sapiens, TMD8, read-out: Emax, growth inhibition): 14% | sensitivity in cell viability assay [1]: resistant

Source: patent US20180353512A1, “COMBINATION THERAPIES FOR TREATING B-CELL MALIGNANCIES” (GILEAD SCIENCES, INC., priority 2015, published 2018)
